The values below come from ChEMBL document CHEMBL3351221, “Synthetic derivatives of aromatic abietane diterpenoids and their biological activities” (Eur J Med Chem, 2014).

Assay [1] has as its system MRC5. Briefly: Cytotoxicity against human MRC5 cells. Format: cell-based.
Assay [2] has as its system AGS. The assay can be described thus: Cytotoxicity against human AGS cells. The format is cell-based.
Assay [3] deals with Mus musculus. Briefly: Gastroprotective activity in mouse assessed as reduction in HCl/EtOH-induced gastric lesions at 20 mg/kg. Format: functional. The conditions noted are these: Stomach.
Assay [4] can be described thus: Cytotoxicity against human Hey-1B cells. Format: functional, cell-based.
Assay [5] concerns Mus musculus. Briefly: Gastroprotective activity in mouse assessed as reduction in HCl/EtOH-induced gastric lesions at 100 mg/kg. The format is functional. The note with it: Stomach.
The subject of assay [6] is Staphylococcus aureus. Briefly: Antimicrobial activity against Staphylococcus aureus. Format: functional.
In assay [7] the test system is Escherichia coli. Briefly: Antimicrobial activity against Escherichia coli. The format is functional.
Assay [8] concerns SMMC-7721. Briefly: Cytotoxicity against human SMMC7721 cells. The format is functional, cell-based.

The structures appear in SMILES notation. Converted amounts (≈) assume the structure as drawn. Where only a bound is given, the exact number is not on record here.

Consider `CC(=O)Oc1cc2c(cc1C(C)C)CC[C@H]1C(C)(C)CCC[C@]21C`, for which the IC50 is 19 µM in assay [1] and 18 µM in assay [2].

In assay [1], `CC(C)c1cc2c(cc1OC(=O)CCCc1c[nH]c3ccccc13)[C@@]1(C)CCCC(C)(C)[C@@H]1CC2` registered an IC50 greater than 1000 µM. The inhibition in vivo at 20 mg/kg in assay [3] is 50%.

In the case of `CCCCCCCCCCCCCCCC(=O)Oc1cc2c(cc1C(C)C)CC[C@H]1C(C)(C)CCC[C@]21C`, the IC50 in assay [1] is greater than 1000 µM. Besides, the inhibition in vivo at 20 mg/kg in assay [3] was 50%.

Take `C=CC(=O)Oc1cc2c(cc1C(C)C)CC[C@H]1C(C)(C)CCC[C@]21C`: the values for the IC50 in assay [1] and in assay [2] were 19 µM and 18 µM, respectively. In addition, the inhibition in vivo at 20 mg/kg in assay [3] was 67%.

`COc1ccc(/C=N/c2cc3c(cc2C(C)C)CC[C@H]2[C@](C)(CNC(C)=O)CCC[C@]32C)cc1` registered an IC50 in assay [4] of 15 mg/L (≈ 32.6 µM).

For `COc1ccc(NC(=O)[C@]2(C)CCC[C@]3(C)c4ccc(C(C)C)cc4CC[C@@H]23)cc1`, the inhibition in vivo at 100 mg/kg in assay [5] turned out to be 67%. Further, the IC50 in assay [1] and in assay [2] was greater than 1000 µM each time.

Consider `CC(C)c1cc2c(cc1OC(=O)c1cc([N+](=O)[O-])cc([N+](=O)[O-])c1)[C@@]1(C)CCCC(C)(C)[C@@H]1CC2`, for which the IC50 is greater than 1000 µM in assay [1] and 29 µM in assay [2].

In the case of `CC(C)c1ccc2c(c1)CC[C@H]1[C@](C)(CNCc3ccccc3)CCC[C@]21C.Cl`, the MIC in assay [6] came out at 7.81 mg/L; in assay [7] it was 250 mg/L.

The molecule `CCCCCCCC/C=C/CCCCCCCC(=O)Oc1cc2c(cc1C(C)C)CC[C@H]1C(C)(C)CCC[C@]21C` displayed a 50% inhibitory concentration (IC50) in assay [1] greater than 1000 µM. Besides, the inhibition in vivo at 20 mg/kg in assay [3] was determined as 50%.

As for `CC(C)c1cc2c(cc1O[C@@H]1O[C@H](CO)[C@H](O)[C@H](O)[C@H]1O)[C@@]1(C)CCCC(C)(C)[C@@H]1CC2`, the IC50 was 19 µM in assay [1] and 18 µM in assay [2]. The inhibition in vivo at 20 mg/kg in assay [3] is 61%.

Regarding `CC(C)c1cc2c(cc1OC(=O)c1cccnc1)[C@@]1(C)CCCC(C)(C)[C@@H]1CC2`, the IC50 in assay [1] was greater than 1000 µM; in assay [2], 22 µM. Further, the inhibition in vivo at 20 mg/kg in assay [3] worked out at 71%.

Consider `CC(C)c1ccc2c(c1)CC[C@H]1[C@](C)(C(=O)Nc3ccc(I)cc3)CCC[C@]21C`, for which the inhibition in vivo at 100 mg/kg in assay [5] is 67%. Moreover, the IC50 in assay [1] and in assay [2] was greater than 1000 µM in each case.

As for `Cc1cc(C)cc(NC(=O)[C@]2(C)CCC[C@]3(C)c4ccc(C(C)C)cc4CC[C@@H]23)c1`, in assay [5], the inhibition in vivo at 100 mg/kg was 67%. In addition, the IC50 in assay [1] and in assay [2] was greater than 1000 µM in each case.

As to `CC(=O)OC[C@H]1O[C@@H](Oc2cc3c(cc2C(C)C)CC[C@H]2C(C)(C)CCC[C@]32C)[C@H](OC(C)=O)[C@@H](OC(C)=O)[C@@H]1OC(C)=O`, the IC50 in assay [1] and in assay [2] was greater than 1000 µM throughout. Also, the inhibition in vivo at 20 mg/kg in assay [3] turned out to be 72%.

Regarding `CC(C)c1cc2c(cc1O)[C@@]1(C)CCCC(C)(C)[C@@H]1CC2` [FERRUGINOL], the IC50 in assay [1] came out at 19 µM; in assay [2] it was 18 µM.

As for `CC(C)c1ccc2c(c1)CC[C@H]1[C@](C)(C(=O)Nc3ccccc3Cl)CCC[C@]21C`, the inhibition in vivo at 100 mg/kg in assay [5] is 67%. Moreover, the IC50 in assay [1] and in assay [2] was greater than 1000 µM in each case.

Regarding `CCC(=O)Oc1cc2c(cc1C(C)C)CC[C@H]1C(C)(C)CCC[C@]21C`, the concentration for half-maximal inhibition (IC50) in assay [1] amounted to 19 µM; in assay [2], 18 µM.

As for `CC(C)c1ccc2c(c1)CC[C@H]1[C@](C)(C[N+](C)(C)C)CCC[C@]21C.COS(=O)(=O)[O-]`, the MIC in assay [6] is 7.81 mg/L; in assay [7], 250 mg/L.

On to `CC(=O)NC[C@]1(C)CCC[C@]2(C)c3cc(/N=C/c4cccc(O)c4)c(C(C)C)cc3CC[C@@H]12`, for which inhibition in assay [4] was half-maximal at 15 mg/L (≈ 33.6 µM) (IC50).

In the case of `CC(C)c1cc2c(cc1O[C@@H]1O[C@H](CO)[C@@H](O)[C@H](O)[C@H]1O)[C@@]1(C)CCCC(C)(C)[C@@H]1CC2`, the figures for the IC50 in assay [1] and in assay [2] were 19 µM and 18 µM, respectively.

Molecule `CC(C)c1ccc2c(c1)CC[C@H]1[C@](C)(NC(=O)Nc3cc(F)cc(F)c3)CCC[C@]21C` displayed an IC50 in assay [8] of 8.8 µM.

For `Cc1ccc(NC(=O)[C@]2(C)CCC[C@]3(C)c4ccc(C(C)C)cc4CC[C@@H]23)cc1`, the inhibition in vivo at 100 mg/kg in assay [5] is 67%. Further, the IC50 in assay [1] and in assay [2] was greater than 1000 µM throughout.

In turn, `CC(C)c1ccc2c(c1)CC[C@H]1[C@](C)(NC(=O)Nc3ccc(F)cc3)CCC[C@]21C` had an IC50 in assay [8] of 8.8 µM. This lies in the single-digit micromolar range.

Turning to `CC(C)c1ccc2c(c1)CC[C@H]1[C@](C)(C[N+](C)(CCO)CCO)CCC[C@]21C.COS(=O)(=O)[O-]`, the results for the minimum inhibitory concentration (MIC) in assay [6] and in assay [7] were 7.81 mg/L and 250 mg/L, respectively.

On to `CC(=O)NC[C@]1(C)CCC[C@]2(C)c3cc(/N=C/c4cc(Br)cc(Br)c4O)c(C(C)C)cc3CC[C@@H]12`, for which, in assay [4], the IC50 is 15 mg/L (≈ 24.8 µM).

Turning to `CC(C)c1ccc2c(c1)CC[C@H]1C(C)(C)CCC[C@]21C`, the inhibition in vivo at 20 mg/kg in assay [3] came to 69%.

Regarding `CC(=O)NC[C@]1(C)CCC[C@]2(C)c3cc(/N=C/c4cc(O)ccc4O)c(C(C)C)cc3CC[C@@H]12`, inhibition in assay [4] was half-maximal at 15 mg/L (≈ 32.4 µM) (IC50).

In the case of `CC(C)c1cc2c(cc1OC(=O)Cc1c[nH]c3ccccc13)[C@@]1(C)CCCC(C)(C)[C@@H]1CC2`, the IC50 in assay [1] was greater than 1000 µM; in assay [2], 12 µM. Moreover, in assay [3], the inhibition in vivo at 20 mg/kg was found to be 50%.

`CC(C)c1ccc2c(c1)CC[C@H]1[C@](C)(CNCCO)CCC[C@]21C.Cl`: the MIC in assay [6] is 7.81 mg/L; in assay [7] it was 250 mg/L.

Turning to `CC(C)c1ccc2c(c1)CC[C@H]1[C@](C)(C[N+](CCO)(CCO)Cc3ccccc3)CCC[C@]21C.[Cl-]`, the MIC came to 7.81 mg/L in assay [6] and 250 mg/L in assay [7].

In assay [8], `CC(C)c1ccc2c(c1)CC[C@H]1[C@](C)(NC(=O)N3CCCCC3)CCC[C@]21C` registered an IC50 of 8.8 µM.

In assay [4], `CC(=O)NC[C@]1(C)CCC[C@]2(C)c3cc(/N=C/c4ccc(O)cc4O)c(C(C)C)cc3CC[C@@H]12` registered a half-inhibitory concentration (IC50) of 15 mg/L (≈ 32.4 µM).

Turning to `COc1ccc(NC(=O)[C@]2(C)CCC[C@]3(C)c4ccc(C(C)C)cc4CC[C@@H]23)c(OC)c1`, the inhibition in vivo at 100 mg/kg in assay [5] was 67%. Besides, the IC50 in assay [1] and in assay [2] was greater than 1000 µM throughout.

For the molecule `CC(C)c1ccc2c(c1)CC[C@H]1[C@](C)(C(=O)Nc3cccc([N+](=O)[O-])c3)CCC[C@]21C`, in assay [5], the inhibition in vivo at 100 mg/kg was 67%. Moreover, the IC50 in assay [1] and in assay [2] was greater than 1000 µM in each case.

Consider `CC(Cl)C(=O)Oc1cc2c(cc1C(C)C)CC[C@H]1C(C)(C)CCC[C@]21C` (stereo partly specified), for which the figures for the IC50 in assay [1] and in assay [2] were 19 µM and 18 µM, respectively. Further, the inhibition in vivo at 20 mg/kg in assay [3] worked out at 76%.

As to `CC(C)c1ccc2c(c1)CC[C@H]1[C@](C)(C[N+](CCO)(CCO)CCO)CCC[C@]21C.[Cl-]`, the MIC amounted to 7.81 mg/L in assay [6] and 250 mg/L in assay [7].

For the molecule `CC(C)c1cc2c(cc1OC=O)[C@@]1(C)CCCC(C)(C)[C@@H]1CC2`, the IC50 in assay [1] worked out at 19 µM; in assay [2], 18 µM.

`Cc1c(C(=O)Oc2cc3c(cc2C(C)C)CC[C@H]2C(C)(C)CCC[C@]32C)oc2ccccc12` displayed an IC50 in assay [1] greater than 1000 µM. Also, the inhibition in vivo at 20 mg/kg in assay [3] is 50%.

Turning to `CC(C)c1ccc2c(c1)CC[C@H]1[C@](C)(C/N=C/c3ccc(F)cc3)CCC[C@]21C`, the IC50 in assay [8] is 44.5 µM. That is a double-digit micromolar value.

As usually defined, the IC50 is the concentration that gives 50% inhibition. For orientation: inhibition in vivo means the relative decrease from the control value, in per cent. Usually MIC stands for the smallest concentration in the dilution series that meets the test's criterion for growth inhibition. A higher MIC goes with a need for much substance.
